According to PubChem BioAssay AID330 (DTP/NCI, 2004):
Where “and” joins values, the source holds several entries; their conditions need not be identical. Equal entries are not always repeated. Toxic doses and inconclusive results are not listed. How the source made its calls: active means survival T/C of 150% or more; inactive means T/C below 125% in these data.

System: P388 leukemia ip, CD2F1 mice, survival T/C
Assay: NCI In Vivo Anticancer Drug Screen. Data for tumor model P388 Leukemia (intraperitoneal) in CD2F1 (CDF1) mice
Details: endpoint: median survival time, higher = longer survival
How it was run: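 Mice carrying the transplanted tumor received test compound or vehicle. Survival was recorded in each group, and the value is the treated-group measurement divided by that of the vehicle-treated control group.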

[1] = dose: 50.0 mg/kg/injection, schedule: Q01DX009 (ip), vehicle: saline with Tween-80
[2] = dose: 100.0 mg/kg/injection, schedule: Q01DX009 (ip), vehicle: saline with Tween-80
[3] = dose: 200.0 mg/kg/injection, schedule: Q01DX009 (ip), vehicle: saline with Tween-80
[4] = dose: 100.0 mg/kg/injection, schedule: Q04DX003 (ip), vehicle: saline with Tween-80
[5] = dose: 200.0 mg/kg/injection, schedule: Q04DX003 (ip), vehicle: saline with Tween-80
[6] = dose: 60.0 mg/kg/injection, schedule: Q01DX005 (ip), vehicle: saline with Tween-80
[7] = dose: 120.0 mg/kg/injection, schedule: Q01DX005 (ip), vehicle: saline with Tween-80
[8] = dose: 240.0 mg/kg/injection, schedule: Q01DX005 (ip), vehicle: saline with Tween-80
[9] = dose: 12.5 mg/kg/injection, schedule: Q01DX005 (ip), vehicle: saline
[10] = dose: 50.0 mg/kg/injection, schedule: Q01DX005 (ip), vehicle: saline
[11] = dose: 50.0 mg/kg/injection, schedule: Q01DX009 (ip), vehicle: saline
[12] = dose: 100.0 mg/kg/injection, schedule: Q01DX009 (ip), vehicle: saline
[13] = dose: 50.0 mg/kg/injection, schedule: Q01DX009 (ip), vehicle: Klucel (hydroxypropylcellulose) (HPC)
[14] = dose: 100.0 mg/kg/injection, schedule: Q01DX009 (ip), vehicle: Klucel (hydroxypropylcellulose) (HPC)
[15] = dose: 200.0 mg/kg/injection, schedule: Q01DX009 (ip), vehicle: Klucel (hydroxypropylcellulose) (HPC)
[16] = dose: 100.0 mg/kg/injection, schedule: Q01DX005 (ip), vehicle: saline
[17] = dose: 6.25 mg/kg/injection, schedule: Q04DX003 (ip), vehicle: Klucel (hydroxypropylcellulose) (HPC)
[18] = dose: 12.5 mg/kg/injection, schedule: Q04DX003 (ip), vehicle: Klucel (hydroxypropylcellulose) (HPC)
[19] = dose: 25.0 mg/kg/injection, schedule: Q04DX003 (ip), vehicle: Klucel (hydroxypropylcellulose) (HPC)

Measured: T/C

CCOC(=O)N1C=CN(C(=O)OCC)C1c1nccn1C(=O)OCC
inactive: [1] 100 % of control | [2] 96 % of control | [3] 105 % of control

C[C@]12CCC(=O)C(O)=C1CC[C@@H]1[C@@H]2CC[C@@]2(C)[C@H]1CC[C@]2(C)O
inactive: dose: 25.0 mg/kg/injection, schedule: Q01DX009 (ip), vehicle: saline with Tween-80 92 % of control | dose: 25.0 mg/kg/injection, schedule: Q04DX003 (ip), vehicle: saline with Tween-80 100 % of control | [1] 100 % of control | dose: 50.0 mg/kg/injection, schedule: Q04DX003 (ip), vehicle: saline with Tween-80 105 % of control | [2] 98 % of control | [4] 101 % of control | [3] 101 % of control | [5] 105 % of control

O=C1OC2CCCC1O2 (stereo not given)
inactive: dose: 50.0 mg/kg/injection, schedule: Q01DX005 (ip), vehicle: saline with Tween-80 106 % of control | dose: 100.0 mg/kg/injection, schedule: Q01DX005 (ip), vehicle: saline with Tween-80 100 % of control | dose: 200.0 mg/kg/injection, schedule: Q01DX005 (ip), vehicle: saline with Tween-80 98 % of control

C=C1CCC2C(C)(CO)C(O)CCC2(C)C1CCC1=CCOC1=O (stereo not given)
inactive: dose: 11.0 mg/kg/injection, schedule: Q01DX005 (ip), vehicle: Klucel (hydroxypropylcellulose) (HPC) 110 % of control | dose: 22.0 mg/kg/injection, schedule: Q01DX005 (ip), vehicle: Klucel (hydroxypropylcellulose) (HPC) 99 % of control | dose: 44.0 mg/kg/injection, schedule: Q01DX005 (ip), vehicle: Klucel (hydroxypropylcellulose) (HPC) 99 % of control | dose: 88.0 mg/kg/injection, schedule: Q01DX005 (ip), vehicle: Klucel (hydroxypropylcellulose) (HPC) 97 % of control

c1ccc(Cc2nnc3n2CCC(c2ccccc2)S3)cc1 (stereo not given)
inactive: [6] 102 % of control | [7] 99 % of control | [8] 95 % of control

Nc1nc2c(nnn2C2OC(COP(=O)(O)OP(=O)(O)O)C(O)C2O)c(=O)[nH]1 (stereo not given)
inactive: dose: 12.5 mg/kg/injection, schedule: Q01DX001 (ip), vehicle: saline 110 % of control | dose: 25.0 mg/kg/injection, schedule: Q01DX001 (ip), vehicle: saline 110 % of control | dose: 50.0 mg/kg/injection, schedule: Q01DX001 (ip), vehicle: saline 116 % of control | dose: 100.0 mg/kg/injection, schedule: Q01DX001 (ip), vehicle: saline 117 % of control

[Cl][Pd][Cl].[NH-]C(CO)C(=O)O (stereo not given)
inactive: [9] 94 % of control | dose: 25.0 mg/kg/injection, schedule: Q01DX005 (ip), vehicle: saline 102 % of control | [10] 106 % of control and 98 % of control

CCCCN1C(=O)CC(=O)N(c2ccccc2)C1=O
inactive: [11] 99 % of control | [12] 103 % of control | dose: 200.0 mg/kg/injection, schedule: Q01DX009 (ip), vehicle: saline 93 % of control

CCOC(=O)c1cn(CC)c2cc(-n3cccc3)ccc2c1=O
inactive: [6] 93 % of control | [7] 98 % of control | [8] 92 % of control

CCCCCCCCCCCCCCCCS(=O)(=O)N/N=C(\c1ccc(O)c(OC)c1)N1CCOCC1
inactive: [13] 110 % of control | [14] 101 % of control | [15] 96 % of control

CC(=O)OC1(c2ccccc2)CCN(C)CC1C(=O)c1ccccc1 (stereo not given)
inactive: [10] 109 % of control | [16] 116 % of control

CC(=O)N1C2=CCCC3CCCCC23c2ccccc21 (stereo not given)
inactive: [1] 98 % of control | [2] 93 % of control | [3] 89 % of control | dose: 400.0 mg/kg/injection, schedule: Q01DX009 (ip), vehicle: saline with Tween-80 95 % of control

C[n+]1ccc2c([N+](=O)[O-])cccc2c1
inactive: dose: 6.25 mg/kg/injection, schedule: Q01DX005 (ip), vehicle: saline 103 % of control | [9] 112 % of control

CC(=O)CC(=O)OCc1ccccc1
inactive: [4] 100 % of control | [5] 100 % of control | dose: 400.0 mg/kg/injection, schedule: Q04DX003 (ip), vehicle: saline with Tween-80 100 % of control

CC(=O)OC1CC2C(C)(C)OC3CC(=O)OCC32C2CCC3(C)C(=CCC3c3ccoc3)C12C (stereo not given)
inactive: dose: 0.5 mg/kg/injection, schedule: Q01DX005 (ip), vehicle: saline + alcohol 108 % of control | dose: 1.0 mg/kg/injection, schedule: Q01DX005 (ip), vehicle: saline + alcohol 98 % of control | dose: 2.0 mg/kg/injection, schedule: Q01DX005 (ip), vehicle: saline + alcohol 106 % of control | dose: 4.0 mg/kg/injection, schedule: Q01DX005 (ip), vehicle: saline + alcohol 111 % of control | dose: 8.0 mg/kg/injection, schedule: Q01DX005 (ip), vehicle: saline + alcohol 108 % of control

O=c1c(I)cn(CC(O)CO)c(=O)n1CC(O)CO (stereo not given)
inactive: dose: 50.0 mg/kg/injection, schedule: Q01DX005 (ip), vehicle: Klucel (hydroxypropylcellulose) (HPC) 95 % of control | dose: 100.0 mg/kg/injection, schedule: Q01DX005 (ip), vehicle: Klucel (hydroxypropylcellulose) (HPC) 100 % of control | dose: 200.0 mg/kg/injection, schedule: Q01DX005 (ip), vehicle: Klucel (hydroxypropylcellulose) (HPC) 86 % of control

O=[N+]([O-])c1cc(Cl)ccc1-c1ccccc1
inactive: [14] 87 % of control | [15] 93 % of control | dose: 400.0 mg/kg/injection, schedule: Q01DX009 (ip), vehicle: Klucel (hydroxypropylcellulose) (HPC) 101 % of control

CCO[Si](CCCCl)(OCC)OCC
inactive: [13] 100 % of control | [14] 106 % of control | [15] 118 % of control

O=C1NC(=O)c2c1c1cnn(-c3ccccc3)c1n1cccc21
inactive: dose: 7.5 mg/kg/injection, schedule: Q01DX005 (ip), vehicle: saline with Tween-80 96 % of control | dose: 15.0 mg/kg/injection, schedule: Q01DX005 (ip), vehicle: saline with Tween-80 96 % of control | dose: 30.0 mg/kg/injection, schedule: Q01DX005 (ip), vehicle: saline with Tween-80 87 % of control

CCN1C(=O)CC([Se]c2ccccc2)C1=O (stereo not given)
inactive: [17] 99 % of control and 103 % of control | [18] 99 % of control and 102 % of control | [19] 100 % of control and 105 % of control | dose: 50.0 mg/kg/injection, schedule: Q04DX003 (ip), vehicle: Klucel (hydroxypropylcellulose) (HPC) 103 % of control and 104 % of control | dose: 100.0 mg/kg/injection, schedule: Q04DX003 (ip), vehicle: Klucel (hydroxypropylcellulose) (HPC) 100 % of control and 104 % of control

CCCCCCCCCCCCCCCCCC(=O)OCCN(C=O)C[n+]1ccccc1
inactive: dose: 100.0 mg/kg/injection, schedule: Q04DX002 (ip), vehicle: saline 93 % of control | dose: 200.0 mg/kg/injection, schedule: Q04DX002 (ip), vehicle: saline 120 % of control

CN(C/C(=N/O)c1ccccc1)C(=O)c1ccccc1
inactive: [10] 98 % of control | [16] 100 % of control | dose: 200.0 mg/kg/injection, schedule: Q01DX005 (ip), vehicle: saline 97 % of control

COc1cc2c(c(OC)c1OC)-c1ccc(=O)c(OC)cc1[C@@H](N(C)C)CC2
inactive: dose: 2.5 mg/kg/injection, schedule: Q01DX009 (ip), vehicle: Klucel (hydroxypropylcellulose) (HPC) 100 % of control | dose: 5.0 mg/kg/injection, schedule: Q01DX009 (ip), vehicle: Klucel (hydroxypropylcellulose) (HPC) 106 % of control | dose: 10.0 mg/kg/injection, schedule: Q01DX009 (ip), vehicle: Klucel (hydroxypropylcellulose) (HPC) 107 % of control | dose: 20.0 mg/kg/injection, schedule: Q01DX009 (ip), vehicle: Klucel (hydroxypropylcellulose) (HPC) 110 % of control | dose: 40.0 mg/kg/injection, schedule: Q01DX009 (ip), vehicle: Klucel (hydroxypropylcellulose) (HPC) 110 % of control

COC(C)(C)[CH]([Hg][Cl])n1ccccc1=O (stereo not given)
inactive: [17] 100 % of control | [18] 93 % of control | [19] 99 % of control and 100 % of control

CCCCCC(CN(C)C)C(=O)/C=C/c1ccc(O)cc1 (stereo not given)
inactive: dose: 12.5 mg/kg/injection, schedule: Q01DX009 (ip), vehicle: saline 88 % of control | dose: 25.0 mg/kg/injection, schedule: Q01DX009 (ip), vehicle: saline 89 % of control | [11] 101 % of control and 93 % of control | [12] 113 % of control

Cc1ccc(S(=O)(=O)N(C)c2ccc(Cl)cc2C2=NCCc3ccccc32)cc1
inactive: [13] 100 % of control | [14] 101 % of control | [15] 101 % of control
